Reference: patent publication US20250275978A1 (Cardiff Oncology, Inc., priority 2024, published 2025)
Where “and” joins values, the source holds several entries; their conditions need not be identical. Identical values can stand only once.

Tests used:
[1] = rodent and nonrodent species; cited from earlier work
AML cell lines = settings: cited from earlier work
panel of 63 kinases = settings: low or no activity; cited from earlier work
CYP1A2 = biological target: T1, CYP1A2 (Homo sapiens, UniProt P05177); settings: human liver microsomes; cited from earlier work
T1 construct: was investigated using human liver microsomes; from tissue; host or cells: human liver microsomes
T1 sequence (P05177 1-516): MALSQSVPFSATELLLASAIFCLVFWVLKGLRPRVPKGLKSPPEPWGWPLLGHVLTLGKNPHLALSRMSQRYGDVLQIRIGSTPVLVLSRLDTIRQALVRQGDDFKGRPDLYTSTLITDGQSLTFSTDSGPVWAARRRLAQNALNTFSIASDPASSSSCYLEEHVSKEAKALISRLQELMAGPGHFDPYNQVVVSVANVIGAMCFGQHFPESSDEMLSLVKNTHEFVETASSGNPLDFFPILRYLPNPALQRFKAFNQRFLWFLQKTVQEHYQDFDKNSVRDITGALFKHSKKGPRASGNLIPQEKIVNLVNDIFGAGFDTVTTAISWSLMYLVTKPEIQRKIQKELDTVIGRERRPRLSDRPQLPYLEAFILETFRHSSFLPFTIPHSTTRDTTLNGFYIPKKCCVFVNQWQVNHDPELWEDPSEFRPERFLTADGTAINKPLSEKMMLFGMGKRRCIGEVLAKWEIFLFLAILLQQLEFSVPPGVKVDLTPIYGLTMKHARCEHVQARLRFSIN

[2] = system: RAS^WT CRC patient-derived xenograft (PDX) models; experiment: Example 1: antitumor activity in RAS^WT CRC PDX models, 18 days; type: in vivo, nude mice
Protocol: Twenty RAS^WT CRC PDXs were selected and engrafted in nude mice. […] Tumor volume change from baseline (TVC) was calculated as 100%×(Vt−Vo)/Vo and tumor growth inhibition (TGI) as 100%×(TVCcontrol−TVCtreated)/TVCcontrol. Tumor regression was defined as TVCD18<0 and tumor stasis […].

[3] = system: RAS^WT colorectal cancer patient derived xenograft (PDX) models; experiment: Example 2: antitumor activity in RAS^WT CRC PDX models, 18-19 days; type: in vivo, mice
Protocol: Tumor volumes (TV) were measured twice a week, and % tumor volume change (TVC) from baseline was calculated as follows: (TVi/TV0−1)×100. Tumor stasis defined as TVC between 0 and 20%, and tumor regression as TVC less than 0% at last measurement. Results are presented as mean±SEM.

[4] = system: cell lines, both from solid as well as hematologic tumors; settings: large number of cell lines; cited from earlier work
[5] = mice; cited from earlier work
[6] = system: patients with advanced/metastatic solid tumors; settings: cited from earlier work
[7] = system: panel of 296 kinases, including other PLK members; settings: cited from earlier work
[8] = 6 PDXs with acquired resistance to cetuximab
[9] = 7 PDXs with intrinsic resistance to cetuximab

For `CN1CCN(c2ccc(OC(F)(F)F)c(Nc3ncc4c(n3)-c3c(c(C(N)=O)nn3CCO)CC4)c2)CC1` [onvansertib, 1-(2-hydroxyethyl)-8-{[5-(4-methylpiperazin-1-yl)-2-(trifluoromethoxy)phenyl]amino}-4,5-dihydro-1H-pyrazolo[4,3-h]quinazoline-3-carboxamide], the oral bioavailability [1] is listed as “good oral bioavailability”, the “Inhibition of cell proliferation” value (AML cell lines) is listed as “nanomolar concentrations” and the IC50 (panel of 63 kinases) is listed as > 500 nM. For the same compound, the “Inhibitory effects against CYP1A2” value (CYP1A2) was “No significant inhibitory effects”, the “PDXs with potent anti-tumor activity (tumor regression or tumor stasis)” value ([2]; 20 PDXs, stasis 0≤TVCD18<100, 85%) was 17 out of 20 and the “median TGI on Day 18” value ([2]; CetuxR PDXs, IQR 74-124) was 108. For the same compound, the “median TGI on Day 18” value ([2]; CetuxS PDXs, IQR 76-103) was 102, the “PDXs with tumor regression (TVCD18<0)” value ([2]; all 20 PDXs, Day 18) was 11 PDXs and the “PDXs with tumor stasis (0≤TVCD18<100)” value ([2]; all 20 PDXs, Day 18) was 6 PDXs. For the same compound, the “models with tumor growth inhibition” value [3, 8] was “one”, the “models with tumor stasis or regression” value [3, 8] was 4/6 and the “models with tumor growth inhibition” value ([3]; 7 PDXs sensitive to cetuximab) was “two”. The “models with tumor stasis or regression” value ([3]; 7 PDXs sensitive to cetuximab, stasis TVC 0-20%) was “five and 5/7”, the “models with tumor growth inhibition” value [3, 9] was “two” and the “models with tumor stasis or regression” value [3, 9] was 5/7. The “models with potent antitumor activity” value ([3]; 13 PDX models resistant to cetuximab, 69%) was 9/13, the “models with tumor regression” value ([3]; all 20 models) was 11 models and the “models with tumor stasis” value ([3]; all 20 models, TVC between 0 and 20%) was 3 models. The “Activity in proliferation assays” value [4] was “low nanomolar activity”, the “concentrations relevant to achieve significant anti-tumoral activity” value [5] was ~1 µM and the DLTs observed ([6]; 36 mg/m^2/day, 4 patients treated) was 2 DLTs. For the same compound, the “patients who developed DLTs” value ([6]; 48 mg/m^2/day) was 2 of 3, the “DLTs at the first 3 dose levels” value ([6]; 6, 12, and 24 mg/m^2/day) was “No DLTs” and the “best observed treatment response” value ([6]; in vivo) was “stable disease (SD)”. The “maximum tolerated dose (MTD)” value ([6]; oral, 5 consecutive days every 3 weeks) was 24 mg/m^2/day, the “recovery from hematologic toxicities” value ([6]; reversible toxicities) was ≤ 3 weeks and the “Specificity for PLK1 among a panel of 296 kinases” value [7] was “high specificity”.
